{
  "source": "patent US11857532B2",
  "about": "“Treatment and prediction of therapeutic responses in patients suffering from Friedreich ataxia” (INSERM (Institut National de la Santé et de la Recherche …, priority 2018, dated 2024)",
  "type_in_all_cases": "cell-based, human",
  "key": {"PBMC (iron content)": {"system": "PBMC (iron content)", "assay": "Ferrozine-based iron quantification in PBMC grown in high iron medium", "settings": "40 h in high iron medium (100 μM FAC), artesunate 25 μM", "experimental": "PBMC were isolated from 8 ml blood samples by density centrifugation using Ficoll (GE Healthcare) and grown 2 h in regular DMEM before treatment with 100 μM FAC for different time.\n(§1) Total iron contents were measured using a ferrozine-based iron assay modified from (Barbeito et al., 2010). For imaging flow cytometry, fibroblasts were starved for one hour in FBS-free DMEM medium, treated with 5 mM EDTA for harvesting them without disrupting TfR1 located at cell surface, as trypsin does, washed 3 times with cold PBS and then labelled with anti-TfR1 antibodies (A24) (Moura et al., 2004) for 1 h on ice to avoid TfR1 internalization. In this condition, only membrane-bound TfR1 is quantified. Secondary staining was performed using Alexa fluor 488 goat anti-mouse antibody (Life technology) for 30 min on ice. Cells were washed and stained with Hoechst for 5 min in a total volume of 50 μl and acquisitions were directly performed. Cell analysis was based on Hoechst-positive signal, allowing to select living cells. […] Data were acquired using the INSPIRE software (Amnis Corp) and analyzed using the IDEAS™ software (version 6.2 Amnis Corp) on at least 20,000 events. […] Results were expressed as mean pixel intensity value which is the intensity normalized to surface area."}, "[1]": {"system": "fibroblasts (Tf recycling)", "assay": "Transferrin (Tf) recycling by spinning-disk confocal microscopy in fibroblasts", "experimental": "(§2) Skin fibroblasts were grown in Dulbecco's Modified Eagle Medium (DMEM, Life technologies) medium supplemented with 10% fetal bovine serum (FBS), 2 mM L-glutamine, 2.5 mM pyruvate, 100 μg/ml streptomycin, 100 U/ml penicillin at 37° C. For treatment with ferric ammonium citrate (FAC), 80% confluent cells were incubated for 72 h with or without 100 μM FAC in serum-free DMEM (i.e. Tf free). For drug treatment, 80% confluent cells were incubated in DMEM+10% FBS supplemented with 25 μM artesunate (Sigma) in DMSO for 48 h, 25 μM CoA (Sigma) for 72 h and 5 mM DCA (Sigma) for 72 h.\nFor Tf recycling, fibroblasts were spread at 30% confluence onto micro-slides glass bottom (IBIDI) 24 h before experiment. Cells were then starved in FBS-free DMEM media for 1 h before add Tf-RED (12.5 μg/mL) for 30 min at 37° C. Cells were washed with PBS and then incubated for in regular media for live-imaging acquisition using spinning disk confocal microscopy (ZEISS Microscopy). Slides were placed un incubation chamber at 37° C. under 5% CO2. At least 20 cells were acquired by condition using 63× oil immersion objective lens with a picture of cell/min during 40 min using Zen software. The nuclear region (NR) was defined using Icy software v1.9. […] PNROI masks were then applied on RED channel by spot detector plugin to obtain quantitative mean fluorescence particle intensity. […]"}, "membrane-bound TfR1": {"system": "membrane-bound TfR1", "assay": "Imaging flow cytometry (Imagestream) of membrane-bound TfR1 in fibroblasts", "experimental": "as §2\nFibroblasts were starved for one hour in FBS-free DMEM medium (i.e. Tf-free), treated with 5 mM EDTA for harvesting them without disrupting TfR1 located at cell surface, as trypsin does, and then labelled with anti-TfR1 antibody at 4° C. to avoid TfR1 internalization. In this condition only membrane-bound TfR1 is quantified. Cell sorting was based on Hoechst-positive signal, allowing to select living cells.\nas §1"}, "TfR1 [2]": {"system": "TfR1", "assay": "Western blot of TfR1 steady-state level in fibroblasts", "settings": "for steady state level of TfR1: CoA 25 μM 72 h, DCA 5 mM 72 h, artesunate 25 μM 48 h", "experimental": "as §2\n(§3) Cultured skin fibroblasts were harvested on ice by scraping in reducing (2 μM dithiothreitol, DTT, denaturation at 95° C. for 5 min) or non-reducing cell lysis buffer (no DTT, no heat denaturation). Western bot analysis was performed on 20 μg of whole-cell protein extracts or mitochondrial-enriched fractions in 12% acrylamide gel or 4-15% gel gradient. Immunodetections were performed in PBS with 5% or 1% milk, 0.05% Tween20 (SIGMA) using the following antibodies: rabbit anti-SOD1 (Abcam, ab16831), rabbit anti-SOD2 (Abcam, ab13533), mouse anti-TfR1 (Invitrogen, 13-6800), rabbit anti-TfR1 (Abcam, 108985), rabbit anti-ferritin (Abcam, ab75973), rabbit anti-IRP1 (Abcam, ab126595), rabbit anti-IRP2 (Abcam, ab80339), rabbit anti-FBXL5 (Abcam, ab140175), rabbit anti-FDXR (Abcam, 204310), rabbit anti-FXN (Protein tech, 14147-1-AP), rabbit anti-PDH E2 subunit (Abcam, ab172617), rabbit anti-lipoic acid (Abcam, ab58724), goat anti-Biotin (Thermo, 31852), mouse anti-VDAC/Porine (Abcam, ab14734)\n(§4) mouse anti-ATP5a (Abcam, ab14748), mouse anti-Vinculin (abeam, ab130007), rabbit anti-TFAM (Proteintech, 19998-1-AP), rabbit ATP8 (Proteintech, 26723-1-AP) and mouse anti-GAPDH antibodies (ab8245). Blots were incubated with fluorescent secondary antibodies (IRDye 800CW/680LT Goat anti-rabbit or anti-mouse IgG (LI-COR)) or HRP-conjugated secondary antibodies (goat anti-rabbit IgG HRP (Abcam), goat anti-mouse IgG HRP (Abcam) or donkey anti-goat IgG HRP (Santa Cruz)) before ECL-based detection (SuperSignal West Dura, Thermo Scientific). Signals captured either with the Odyssey Infrared Imaging System using Image Studio Lite v5.2 (LI-COR Biosciences) or with CDD camera using Image Lab v3.0 (BioRad)."}, "TfR1 [3]": {"system": "TfR1", "assay": "TfR1 palmitoylation assay in cultured skin fibroblasts", "experimental": "as §2\nTfR1 palmitoylation in cultured skin fibroblasts was modified from (Ba et al., 2012). Briefly, cells were lysed on ice in a DTT-free cell lysis buffer and endogenous TfR1 was immunoprecipitated overnight with mouse anti-TfR1 antibody (Life Technologies, 136890) with protein G magnetic beads (BioRad). After washing with PBS, beads were successively incubated 2 h with 50 mM N-ethylmaleimide (NEM) at room temperature, 1 M hydroxylamine and 50 mM HPDP-Biotin (Thermo) in dark for 2 hours. Samples were run in 12% acrylamide gel and biotin-labeled TfR1 level was determined by immunoblotting in non-reducing conditions using Chemidoc technology thanks to a CCD camera (BioRad) and ImageLab software v3.0 (BioRad)."}, "[4]": {"system": "ferritin, FBXL5, SOD2, IRP1-2", "assay": "Western blot of proteins involved in iron homeostasis and antioxidant defense in fibroblasts", "settings": "artesunate 25 μM for 48 h", "experimental": "as §2, §3, §4"}, "[5]": {"system": "fibroblasts (cellular iron content)", "assay": "Ferrozine-based iron quantification in fibroblasts", "settings": "for iron content: control cells", "experimental": "as §2\nTotal iron contents were measured using a ferrozine-based iron assay modified from (Barbeito et al., 2010). For imaging flow cytometry, fibroblasts were starved for one hour in FBS-free DMEM medium, treated with 5 mM EDTA for harvesting them without disrupting TfR1 located at cell surface, as trypsin does, washed 3 times with cold PBS and then labelled with anti-TfR1 antibodies (A24) (Moura et al., 2004) for 1 h on ice to avoid TfR1 internalization. In this condition, only membrane-bound TfR1 is quantified. Secondary staining was performed using Alexa fluor 488 goat anti-mouse antibody (Life technology) for 30 min on ice. Cells were washed and stained with Hoechst for 5 min in a total volume of 50 μl and acquisitions were directly performed. Cell analysis was based on Hoechst-positive signal, allowing to select living cells. Samples were run on an Imagestream ISX mkII (Amnis Corp, Millipore, Seattle, WA) that combines flow cytometry with detailed cell-imaging and functional studies and a 40× magnification was used for all acquisitions. Data were acquired using the INSPIRE software (Amnis Corp) and analyzed using the IDEAS™ software (version 6.2 Amnis Corp) on at least 20,000 events. Spectral compensation was performed using singly stained samples. A specific mask was designed for analysis of the membrane localization of TfR1. This mask was the result of a full bright field mask minus a 5 pixels erode and 1 pixel dilate bright mask resulting in doughnuts-like mask. Results were expressed as mean pixel intensity value which is the intensity normalized to surface area."}, "[6]": {"settings": "FRDA fibroblasts, artesunate 25 μM for 48 h"}, "[7]": {"settings": "control cells, artesunate 25 μM for 48 h"}},
  "data": [
    {"smiles": "C[C@H]1[C@H](OC(=O)CCC(=O)O)O[C@@H]2O[C@@]3(C)CC[C@H]4[C@H](C)CC[C@@H]1[C@@]24OO3", "note": "[artesunate, (3R,5aS,6R,8aS,9R,10S,12R,12aR)-Decahydro-3,6,9-trimetyl-3,12-epoxy-12H-pyrano[4,3-j]-1,2-benzodioxepin-10-ol, hydrogen succinate]", "values": [
      {"measurement": "iron content of PBMC", "setting": "PBMC (iron content); FRDA PBMCs", "result": "two-fold decrease"},
      {"measurement": "iron content of PBMC", "setting": "PBMC (iron content); control PBMCs", "result": "two-fold decrease"},
      {"measurement": "Tf recycling (Tf-Alexa555 signal)", "setting": "[1]; [6]", "result": "complete rescue"},
      {"measurement": "Tf recycling", "setting": "[1]; control cells treated with artesunate", "result": "slight delay"},
      {"measurement": "decrease of membrane TfR1", "setting": "membrane-bound TfR1; [6]", "result": "15-30%"},
      {"measurement": "increase of membrane TfR1", "setting": "membrane-bound TfR1; [7]", "result": "1.1 to 1.3", "unit": "fold"},
      {"measurement": "TfR1 steady-state level relative to control values in artesunate-free medium", "setting": "TfR1 [2]; FRDA fibroblasts, regular DMEM, artesunate 25 μM for 48 h", "result": "136 % of control values"},
      {"measurement": "steady state level of TfR1", "setting": "TfR1 [2]; FRDA fibroblasts", "result": "significantly decreased"},
      {"measurement": "TfR1 steady-state level", "setting": "TfR1 [2]; [7]", "result": "slight increase"},
      {"measurement": "TfR1 palmitoylation relative to controls", "setting": "TfR1 [3]; [6]", "result": "80 % of controls"},
      {"measurement": "TfR1 palmitoylation", "setting": "TfR1 [3]; control cells, artesunate treatment", "result": "slight but non-significant decrease"},
      {"measurement": "FBXL5 steady state level", "setting": "[4]; FRDA fibroblasts", "result": "returned to control values"},
      {"measurement": "IRP1-2 steady state levels", "setting": "[4]; FRDA fibroblasts", "result": "not modified"},
      {"measurement": "SOD2 steady state level", "setting": "[4]; FRDA fibroblasts", "result": "decreased"},
      {"measurement": "ferritin steady state level", "setting": "[4]; FRDA fibroblasts", "result": "returned to control values"},
      {"measurement": "FBXL5 steady state level", "setting": "[4]; control cells", "result": "not modified"},
      {"measurement": "ferritin steady state level", "setting": "[4]; control cells", "result": "not modified"},
      {"measurement": "cellular iron content relative to initial cellular iron content", "setting": "[5]; FRDA fibroblasts, basal conditions, artesunate 25 μM for 48 h", "result": "62-79 % of initial cellular iron content"},
      {"measurement": "decrease of cellular iron content", "setting": "[5]; FRDA fibroblasts, high iron condition (100 μM FAC), 25 μM artesunate for 48 h", "result": "71-79%"},
      {"measurement": "iron content", "setting": "[5]; basal conditions, artesunate 25 μM for 48 h", "result": "light but non-significant increase"},
      {"measurement": "iron content", "setting": "[5]; high iron conditions (100 μM FAC), 25 μM artesunate", "result": "decreased"}
    ]},
    {"smiles": "CC(C)(COP(=O)(O)OP(=O)(O)OC[C@H]1O[C@@H](n2cnc3c(N)ncnc32)[C@H](O)[C@@H]1OP(=O)(O)O)[C@@H](O)C(=O)NCCC(=O)NCCS", "note": "[CoA, [[(2R,3S,4R,5R)-5-(6-aminopurin-9-yl)-4-hydroxy-3-phosphonooxyoxolan-2-yl]methoxy-hydroxyphosphoryl][(3R)-3-hydroxy-2,2-dimethyl-4-oxo-4-[[3-oxo-3-(2-sulfanylethylamino)propyl]amino]butyl]hydrogen phosphate]", "values": [
      {"measurement": "membrane TfR1 accumulation", "setting": "membrane-bound TfR1; summary statement in discussion, conditions not given", "result": "reduced"},
      {"measurement": "steady state level of TfR1", "setting": "TfR1 [2]; FRDA fibroblasts", "result": "decreased"},
      {"measurement": "increase of TfR1 palmitoylation", "setting": "TfR1 [3]; FRDA fibroblasts, CoA 25 μM for 72 h", "result": "2.1 to 3.2", "unit": "fold"},
      {"measurement": "decrease of cellular iron content", "setting": "[5]; FRDA fibroblasts, high iron conditions (+FAC), CoA 25 μM for 72 h", "result": "1.6-2.4 fold"}
    ]}
  ]
}
